Data published in article PMC12803606, “A metabolic comparison of GIPR agonism versus GIPR antagonism in male mice” (Diabetes, Obesity & Metabolism, 2025).

Legend:
humans = conditions: ref 12 (as cited in b3; abstract prints none); cited from earlier work
mouse GIPR = experiment: HTRF cAMP assay, AD293 cells transiently transfected with mGIPR; assay type: cell-based; conditions: 30 min, n = 3
Excerpt: For the antagonist we used a long‐acting GIPR antagonist, named throughout as NN‐GIPR‐Ant, previously characterised by Yang et al.[7] We first confirmed the actions of NN‐GIPR‐Ant as a mouse GIPR antagonist, performing in vitro cAMP assays in AD293 cells, a human embryonic kidney cell line commonly used in G‐protein coupled receptor research due to rapid division and ease of receptor transfection.
(A–C) Amino acid sequences of hGIP (A), GIP108 (B) and NN‐GIPR‐Ant (C). AIB = 2‐aminoisobutyric acid. Side chains denote fatty acid tails. (D–F) cAMP measurements in AD293 cells transiently transfected with the mGIPR (D), mGLP‐1R (E) and mGCGR (F) and stimulated for 30 min with the indicated peptide (n = 3), with three parameter curve fits plotted. (G, H) 60‐min intraperitoneal glucose tolerance test in lean mice (n = 8). (G) Plasma glucose over time with glucose ± hGIP injected at t = 0 and NN‐GIPR‐Ant injected at t = −120 min, analysed using two‐way ANOVA with time and subgroup as co‐variables. (H) Glucose AUC derived from the time course in (H), analysed using a one‐way ANOVA. Dunnett's test was used to correct for multiple comparisons against vehicle control. […] The colour of the star denotes which group is statistically different compared to vehicle control. […]

GIPR = experiment: Intraperitoneal glucose tolerance test in lean mice, hGIP with NN-GIPR-Ant (in vivo antagonism); design: species or system mouse; conditions: n = 8, hGIP 50 nmol/kg with glucose 2 g/kg at t = 0
Procedure: (A–C) Amino acid sequences of hGIP (A), GIP108 (B) and NN‐GIPR‐Ant (C). AIB = 2‐aminoisobutyric acid. Side chains denote fatty acid tails. (D–F) cAMP measurements in AD293 cells transiently transfected with the mGIPR (D), mGLP‐1R (E) and mGCGR (F) and stimulated for 30 min with the indicated peptide (n = 3), with three parameter curve fits plotted. (G, H) 60‐min intraperitoneal glucose tolerance test in lean mice (n = 8). (G) Plasma glucose over time with glucose ± hGIP injected at t = 0 and NN‐GIPR‐Ant injected at t = −120 min, analysed using two‐way ANOVA with time and subgroup as co‐variables. (H) Glucose AUC derived from the time course in (H), analysed using a one‐way ANOVA. Dunnett's test was used to correct for multiple comparisons against vehicle control. […] The colour of the star denotes which group is statistically different compared to vehicle control.
All animal procedures were approved by the British Home Office under the UK Animals (Scientific Procedures) Act 1986, and Amendment Regulations, 2012 and approved by the Imperial College London Animal Welfare and Ethical Review Body. Wild type male C57BL/6J mice (8-14 weeks; Charles River, UK) were used. […]
Mice were fasted at 08:00. […] Total glucose AUC was calculated by trapezoidal rule using y=0 as baseline. Glucose readings were measured in mmol/L using the same ISO15197-compliant GlucoRx Nexus (GlucoRx, Guildford, UK) glucometer.

[1] = test system: osteoblastic and osteoclastic activity; conditions: cited from earlier work
CTX = conditions: rodent models and humans; cited from earlier work
glucagon secretion = conditions: cited from earlier work
Excerpt: We next investigated the effects of GIP108 and NN‐GIPR‐Ant administration on insulin sensitivity.

human adipocytes = conditions: acute administration; ex vivo and in vivo glucose uptake; cited from earlier work
Excerpt: Another important focus of this study was the effect of GIP108 and NN‐GIPR‐Ant administration on insulin sensitivity.

[2] = human study, 6‐day GIP infusion; cited from earlier work
Excerpt: We also investigated the effects of GIPR agonism and antagonism on liver triglyceride content.

maridebart cafraglutide: Amgen's high‐affinity GIPR antagonist antibody with GLP‐1R agonist conjugate arms
weight loss effects in humans (humans): significant weight loss effects in humans

hGIP: hGIP(1‐42); sequence in Figure 1A (YAEGTFISDYSIAMDKIHQQDFVNWLLAQKGKKNDWKHNITQ; Gastric inhibitory polypeptide; UniProt P09681 52-93, looked up)
stimulation of cAMP at mouse GIPR (mouse GIPR): ability to stimulate cAMP | improvement of glucose tolerance by hGIP (GIPR): improve glucose tolerance

glucose‐dependent insulinotropic polypeptide [GIP]
osteoblastic and osteoclastic activity [1]: increases osteoblastic and suppresses osteoclastic activity | CTX levels, acute (CTX): acutely lowers CTX levels | glucagon secretion in hypoglycaemia (glucagon secretion): potently stimulate glucagon secretion in hypoglycaemia | insulin sensitising effect in human adipocytes (human adipocytes): increasing adipocyte glucose uptake both ex vivo and in vivo | liver fat [2]: increased liver fat
